From PMC4490784, “Compensatory induction of MYC expression by sustained CDK9 inhibition via a BRD4-dependent mechanism” (eLife, 2015)

Legend:
GAK = molecular target: T1, GAK (Homo sapiens, UniProt O14976); test: KINOMEscan binding assay; conditions: read-out: % Retention on Solid Support
T1 construct: purchased DiscoveRx KINOMEscan
Method: (§1) As there are no commercial or in-house kinase assays available for CDK3, CDK5, CDK11 and CDK13, the inhibitory abilities of i-CDK9 toward these CDKs were thus evaluated in the DiscoveRx KINOMEscan assay, which is based on a proprietary active site-directed competition-binding platform ([Fabian et al., 2005]).
(§2) The inhibitory activity of i-CDK9 for CDK1-CycB (Upstate/Millipore), CDK2-CycA (Invitrogen), CDK4-CycD1 (Novartis), CDK7-CycH-MAT1 (Invitrogen), and CDK9-CycT1 (Invitrogen) was assessed in the AlphaScreen (PerkinElmer, Inc)-based kinase assay developed at Novartis. Briefly, each CDK–cyclin pair was pre-incubated with i-CDK9 for 15 min, followed by addition of kinase substrates (ELK for CDK1 and CDK2, RB for CDK4, and CDK7tide for CDK7 and CDK9). The mixture was incubated at room temperature for additional 4–5 hr. The reaction was stopped and read on Envision (PerkinElmer, Inc). Selectivity against a large panel of over 400 kinases was evaluated using the KINOMEscan platform (DiscoveRx, CA) employing a proprietary active site-directed competition binding assay ([Fabian et al., 2005]). The assay was conducted at two different concentrations of i-CDK9 (1 and 10 µM) by DiscoveRx.

STK16 = molecular target: T2, STK16 (Homo sapiens, UniProt O75716); test: KINOMEscan binding assay; conditions: read-out: % Retention on Solid Support
T2 construct: purchased DiscoveRx KINOMEscan
T2 sequence (O75716 whole entry): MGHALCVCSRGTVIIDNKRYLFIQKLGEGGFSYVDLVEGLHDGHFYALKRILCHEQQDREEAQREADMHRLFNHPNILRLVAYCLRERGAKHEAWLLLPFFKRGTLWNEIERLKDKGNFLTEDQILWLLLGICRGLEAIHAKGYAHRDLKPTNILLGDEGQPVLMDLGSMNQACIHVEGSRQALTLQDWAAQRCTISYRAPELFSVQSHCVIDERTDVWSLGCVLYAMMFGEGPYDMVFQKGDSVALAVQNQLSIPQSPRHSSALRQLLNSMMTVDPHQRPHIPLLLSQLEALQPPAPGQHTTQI
Method: as §1, §2

BMPR2 = molecular target: T3, BMPR2 (Homo sapiens, UniProt Q13873); test: KINOMEscan binding assay
T3 construct: purchased DiscoveRx KINOMEscan
T3 sequence (Q13873 27-1038): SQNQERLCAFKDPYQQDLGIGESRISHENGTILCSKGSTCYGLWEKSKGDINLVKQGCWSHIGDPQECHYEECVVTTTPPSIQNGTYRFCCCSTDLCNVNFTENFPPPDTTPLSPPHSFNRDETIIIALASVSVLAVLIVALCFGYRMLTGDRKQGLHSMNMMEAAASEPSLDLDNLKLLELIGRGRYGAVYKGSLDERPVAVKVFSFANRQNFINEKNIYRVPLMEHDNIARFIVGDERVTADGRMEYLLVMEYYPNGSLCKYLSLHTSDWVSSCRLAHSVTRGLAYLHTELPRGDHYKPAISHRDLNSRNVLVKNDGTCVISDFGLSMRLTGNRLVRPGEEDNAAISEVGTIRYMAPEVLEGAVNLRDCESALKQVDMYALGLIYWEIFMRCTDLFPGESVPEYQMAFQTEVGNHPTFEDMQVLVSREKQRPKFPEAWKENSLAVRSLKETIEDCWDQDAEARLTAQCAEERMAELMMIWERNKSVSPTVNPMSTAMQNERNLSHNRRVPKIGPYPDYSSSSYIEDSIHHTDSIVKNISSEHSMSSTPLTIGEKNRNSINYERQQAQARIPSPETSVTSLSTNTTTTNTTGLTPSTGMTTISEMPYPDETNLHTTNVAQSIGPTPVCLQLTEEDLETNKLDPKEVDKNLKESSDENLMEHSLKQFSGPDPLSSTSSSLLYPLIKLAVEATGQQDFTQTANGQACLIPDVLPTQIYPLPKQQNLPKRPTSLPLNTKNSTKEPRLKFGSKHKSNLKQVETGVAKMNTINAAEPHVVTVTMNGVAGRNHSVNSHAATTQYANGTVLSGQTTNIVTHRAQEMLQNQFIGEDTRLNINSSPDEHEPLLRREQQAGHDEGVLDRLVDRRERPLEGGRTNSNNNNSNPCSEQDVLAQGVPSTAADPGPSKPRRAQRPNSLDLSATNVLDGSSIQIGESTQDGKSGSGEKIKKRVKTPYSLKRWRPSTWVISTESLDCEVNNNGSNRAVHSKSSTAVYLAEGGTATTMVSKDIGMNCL
Method: as §1, §2

PIK3CA(H1047Y) = molecular target: T4, PIK3CA(H1047Y) (Homo sapiens, UniProt P42336, H1047Y); test: KINOMEscan binding assay; conditions: read-out: % Retention on Solid Support
T4 construct: purchased DiscoveRx KINOMEscan
T4 sequence (P42336 whole entry H1047Y): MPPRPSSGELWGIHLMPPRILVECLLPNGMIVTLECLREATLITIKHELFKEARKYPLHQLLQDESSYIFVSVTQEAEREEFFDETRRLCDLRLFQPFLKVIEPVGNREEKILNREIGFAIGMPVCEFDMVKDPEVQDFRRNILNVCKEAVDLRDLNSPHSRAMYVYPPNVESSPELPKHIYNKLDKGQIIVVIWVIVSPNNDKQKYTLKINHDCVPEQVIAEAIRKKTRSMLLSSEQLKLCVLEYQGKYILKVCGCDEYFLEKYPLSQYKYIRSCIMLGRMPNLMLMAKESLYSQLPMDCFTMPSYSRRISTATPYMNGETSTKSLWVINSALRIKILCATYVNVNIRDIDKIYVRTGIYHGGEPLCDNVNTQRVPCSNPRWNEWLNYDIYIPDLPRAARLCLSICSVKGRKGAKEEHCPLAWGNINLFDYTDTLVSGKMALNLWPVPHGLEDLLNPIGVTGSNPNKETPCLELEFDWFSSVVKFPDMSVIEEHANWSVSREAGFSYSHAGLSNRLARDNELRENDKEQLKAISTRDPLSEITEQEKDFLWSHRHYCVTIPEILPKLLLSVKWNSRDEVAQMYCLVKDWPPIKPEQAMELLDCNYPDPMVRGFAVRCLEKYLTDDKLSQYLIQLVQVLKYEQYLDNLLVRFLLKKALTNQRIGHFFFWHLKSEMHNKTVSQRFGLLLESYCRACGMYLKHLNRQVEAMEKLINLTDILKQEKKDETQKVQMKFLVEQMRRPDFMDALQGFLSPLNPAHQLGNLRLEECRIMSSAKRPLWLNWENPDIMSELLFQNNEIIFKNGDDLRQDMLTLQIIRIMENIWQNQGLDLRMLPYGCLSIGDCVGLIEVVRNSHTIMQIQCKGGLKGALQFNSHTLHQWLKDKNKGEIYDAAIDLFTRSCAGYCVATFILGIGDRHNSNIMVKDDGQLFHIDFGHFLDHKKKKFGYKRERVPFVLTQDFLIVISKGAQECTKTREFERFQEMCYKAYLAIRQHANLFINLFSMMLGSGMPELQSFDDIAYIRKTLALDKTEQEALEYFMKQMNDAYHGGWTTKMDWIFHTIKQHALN
Method: as §1, §2

[1] = test system: 7SK snRNP in HeLa-based F1C2 cells; test: CDK9-F co-immunoprecipitation: disruption of 7SK snRNP, formation of BRD4-P-TEFb; assay type: cell-based, human
Method: A number of stress-inducing agents/conditions are known to cause the release of P-TEFb from 7SK snRNP, which serves as the principal reservoir of uncommitted P-TEFb activity in the nucleus (reviewed in [Zhou et al., 2012]). […] CDK9-F was stably expressed in the HeLa-based F1C2 cells ([Yang et al., 2001]) that were treated with a wide range of i-CDK9 concentrations for 8 hr.
Just like the induction of MYC expression (Figure 3B), the disruption of 7SK snRNP and formation of BRD4-P-TEFb were highly sensitive to i-CDK9 and required as little as 0.1 μM of the drug (Figure 4A, compare lane 8 to lane 6). […] In a time course analysis, i-CDK9 (0.3 μM)-induced disruption of 7SK snRNP at a time point (1 hr) that was much earlier than that required to cause about 50% reduction in global pSer2 (8 hr; Figure 4—figure supplement 1).
All Co-immunoprecipitation experiments were performed in NEs prepared from F1C2 cells that stably express CDK9-F or the parental HeLa cells transfected with the indicated cDNAs. The procedures have been described previously ([Lu et al., 2014]).

[2] = test system: MYC protein in HeLa cells; test: Immunoblotting of MYC protein in HeLa cell lysates; assay type: cell-based, human
Method: Figure 3. Induction of MYC mRNA production in response to sustained inhibition of CDK9 by i-CDK9 and the requirement of MYC's natural genomic structure in this process. (A) The indicated tumor cell lines were treated with i-CDK9 (0.5 μM) for 2–16 hr and the MYC mRNA levels, which were divided by those in the DMSO-treated cells and averaged from three independent replicates of DNA microarray analysis, were shown as log2 values. (B) HeLa cells were treated with the indicated concentrations of i-CDK9 for 8 hr and the various proteins in the total cell lysates were detected by immunoblotting as indicated. Quantifications of the levels of MYC protein and Ser2-phosphoryalted Pol II (pSer2) in the lysates were shown above and below the immunoblots, respectively. […] The levels of the indicated proteins were examined by immunoblotting. (G) A HeLa-based cell line containing the stably transfected, doxycycline (Dox)-inducible MYC-F-expressing plasmid driven by the CMV promoter was pretreated with (+) or without (−) Dox prior to incubation with i-CDK9 or DMSO. MYC and MYC-F expressed from the endogenous MYC locus and the transfected plasmid, respectively, were detected by immunoblotting. DOI: http://dx.doi.org/10.7554/eLife.06535.007 Figure 3—figure supplement 1. Biphasic response of MYC mRNA production throughout the course of CDK9 inhibition by i-CDK9. DOI: http://dx.doi.org/10.7554/eLife.06535.008 [drawing 2] Figure 3—Figure supplement 2. […] DOI: http://dx.doi.org/10.7554/eLife.06535.009 [drawing 3] TEXT PRINTED IN THE PICTURE: (B) i-CDK9: Fold increase in MYC protein: 1.0 (i-CDK9 (μM): 0); Fold increase in MYC protein: 1.2 (i-CDK9 (μM): 0.01); Fold increase in MYC protein: 1.7 (i-CDK9 (μM): 0.03); Fold increase in MYC protein: 3.6 (i-CDK9 (μM): 0.1); Fold increase in MYC protein: 5.2 (i-CDK9 (μM): 0.3); Fold increase in MYC protein: 5.5 (i-CDK9 (μM): 1.0) | (C) i-CDK9: Fold increase in MYC protein: 1.0 (0.3 μM i-CDK9 (h): 0); Fold increase in MYC protein: 0.9 (0.3 μM i-CDK9 (h): 1); Fold increase in MYC protein: 1.1 (0.3 μM i-CDK9 (h): 2); Fold increase in MYC protein: 1.2 (0.3 μM i-CDK9 (h): 4); Fold increase in MYC protein: 3.3 (0.3 μM i-CDK9 (h): 8)
First, the induction of MYC protein level was confirmed in HeLa cells treated with i-CDK9. […] It took 1.0 µM i-CDK9 to cause up to 85% reduction in pSer2. In a separate time-course analysis, the 8-hr incubation with i-CDK9 (0.3 μM) induced the MYC level by 3.3-fold, whereas the same condition reduced the pSer2 level by only 40% (Figure 3C). Thus, MYC expression was highly responsive to i-CDK9 treatment and occurred at a time point earlier and drug concentration lower than those required to achieve a significant suppression of Ser2 phosphorylation on the Pol II CTD.

T1 sequence (O14976 whole entry): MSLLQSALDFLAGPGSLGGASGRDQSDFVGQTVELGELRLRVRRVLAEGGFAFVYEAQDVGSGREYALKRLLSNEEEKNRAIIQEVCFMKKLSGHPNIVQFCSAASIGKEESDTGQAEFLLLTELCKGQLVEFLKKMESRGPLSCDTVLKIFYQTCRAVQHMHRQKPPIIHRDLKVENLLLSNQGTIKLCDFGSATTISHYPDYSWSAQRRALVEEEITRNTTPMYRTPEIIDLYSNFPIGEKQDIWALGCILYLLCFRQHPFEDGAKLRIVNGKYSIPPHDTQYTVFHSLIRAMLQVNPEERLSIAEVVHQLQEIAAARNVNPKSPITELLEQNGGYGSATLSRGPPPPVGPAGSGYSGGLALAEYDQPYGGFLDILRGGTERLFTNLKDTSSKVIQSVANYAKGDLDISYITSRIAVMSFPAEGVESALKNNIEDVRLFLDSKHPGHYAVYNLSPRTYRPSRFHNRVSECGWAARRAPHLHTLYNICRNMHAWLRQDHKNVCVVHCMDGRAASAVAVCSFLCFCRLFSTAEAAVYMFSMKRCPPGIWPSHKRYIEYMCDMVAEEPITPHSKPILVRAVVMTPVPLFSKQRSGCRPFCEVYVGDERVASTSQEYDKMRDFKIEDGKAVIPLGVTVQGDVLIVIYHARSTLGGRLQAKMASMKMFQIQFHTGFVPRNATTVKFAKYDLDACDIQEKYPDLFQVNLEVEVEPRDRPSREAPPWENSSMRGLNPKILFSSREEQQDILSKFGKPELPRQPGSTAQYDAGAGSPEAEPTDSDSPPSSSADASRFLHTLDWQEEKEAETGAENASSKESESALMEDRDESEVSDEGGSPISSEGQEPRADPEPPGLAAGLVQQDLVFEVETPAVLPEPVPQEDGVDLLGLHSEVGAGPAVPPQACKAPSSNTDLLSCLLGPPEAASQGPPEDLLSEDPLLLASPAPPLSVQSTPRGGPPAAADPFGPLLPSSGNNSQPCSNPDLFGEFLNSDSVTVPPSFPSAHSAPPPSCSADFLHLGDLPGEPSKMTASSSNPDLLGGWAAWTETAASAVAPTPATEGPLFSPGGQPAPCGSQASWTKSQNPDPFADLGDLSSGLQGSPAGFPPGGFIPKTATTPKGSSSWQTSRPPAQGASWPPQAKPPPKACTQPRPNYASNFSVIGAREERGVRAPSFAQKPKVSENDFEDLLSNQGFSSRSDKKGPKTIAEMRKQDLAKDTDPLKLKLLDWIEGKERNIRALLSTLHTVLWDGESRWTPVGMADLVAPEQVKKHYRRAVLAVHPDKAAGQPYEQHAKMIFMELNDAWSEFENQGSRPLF

For `N[C@H]1CC[C@H](Nc2cc(-c3cccc(NCc4cccc(F)c4)n3)c(Cl)cn2)CC1` [i-CDK9, N2′-(trans-4-aminocyclohexyl)-5′-chloro-N6-(3-fluorobenzyl)-2,4′-bipyridine-2′,6-diamine], which remaining binding at 1 µM (GAK; 1 µM i-CDK9) is on record?
Its remaining binding at 1 µM is 100%.

And the remaining binding at 10 µM (GAK; 10 µM i-CDK9)?
The remaining binding at 10 µM was 89%.

What about the remaining binding at 1 µM (STK16; 1 µM i-CDK9) of the same compound?
The remaining binding at 1 µM was 95%.

And the remaining binding at 10 µM (STK16; 10 µM i-CDK9)?
Its remaining binding at 10 µM is 100%.

What about the “% Retention on Solid Support” value (BMPR2; 1 µM i-CDK9) of the same compound?
The value was 100%.

And the “% Retention on Solid Support” value (BMPR2; 10 µM i-CDK9)?
The value was 100%.

What about the remaining binding at 1 µM (PIK3CA(H1047Y); 1 µM i-CDK9) of the same compound?
Its remaining binding at 1 µM is 100%.

What about the remaining binding at 10 µM (PIK3CA(H1047Y); 10 µM i-CDK9) of the same compound?
Its remaining binding at 10 µM is 100%.

And the “time point of disruption of 7SK snRNP” value ([1]; 0.3 μM)?
Its value is 1 h.

And the “concentration required for disruption of 7SK snRNP and formation of BRD4-P-TEFb” value ([1]; 8 hr)?
The value was 0.1 µM.

What about the “Fold increase in MYC protein” value ([2]; 0.01 μM, 8 hr) of the same compound?
The value was 1.2 fold.

And the “Fold increase in MYC protein” value ([2]; 0.03 μM, 8 hr)?
The value was 1.7 fold.

And the “Fold increase in MYC protein” value ([2]; 0.1 μM, 8 hr)?
The value was 3.6 fold.

And the “Fold increase in MYC protein” value ([2]; 0.3 μM, 1 h (time course))?
Its value is 0.9 fold.

What about the “Fold increase in MYC protein” value ([2]; 0.3 μM, 2 h (time course)) of the same compound?
Its value is 1.1 fold.

What about the “Fold increase in MYC protein” value ([2]; 0.3 μM, 4 h (time course)) of the same compound?
The value was 1.2 fold.

What about the “Fold increase in MYC protein” value ([2]; 0.3 μM, 8 h (time course)) of the same compound?
Its value is 3.3 fold.

And the “Fold increase in MYC protein” value ([2]; 0.3 μM, 8 hr (dose series))?
Its value is 5.2 fold.

And the “Fold increase in MYC protein” value ([2]; 1.0 μM, 8 hr)?
Its value is 5.5 fold.

What about the MYC induction ([2]; 2 μM added at time zero) of the same compound?
Its MYC induction is “No MYC induction”.
